In PubChem BioAssay AID1013 (Columbia University Molecular Screening Center, 2008):
Activity calls are given as the source filed them. No rule for the calls is given here.

Assays:
[1] = system: TNFa-stimulated cells, VCAM1 expression imaging; assay: blockers of VCAM1 upregulation by TNFa – imaging, TNFa stimulus, retest and dose response, confirmation (AID 1013);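 as to cell count: compound on cells 1 h before TNFa then 24 h more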
[2] = as above; settings: TNFa-stimulated cells, VCAM1 expression imaging; cell count; at 10 µM; stronger effect = lower value

| SMILES | IC50 [1] | cell count [2] |
| --- | --- | --- |
| CCOc1cc(/C=N\NC(=O)Cc2ccccc2)ccc1OCC(=O)Nc1ccc(C)c(C)c1 | > 10 µM (inactive) | 110% |
| CC(=O)c1c(C)oc2ccc(N(C(C)=O)S(=O)(=O)c3ccc(Cl)c([N+](=O)[O-])c3)cc12 | > 10 µM (inactive) | 104% |
| CCc1ccc(C(=O)/C=C/c2ccc([N+](=O)[O-])o2)cc1 | > 10 µM (inactive) | 94.9% |
| CC1=C([N+](=O)[O-])C(c2cccc(Br)c2)C2=C(N1)c1ccccc1C2=O (centres undefined) | > 10 µM (inactive) | 68.1% |
| CCOc1ccccc1C(=O)N1CCN(c2cccc(Cl)c2)CC1 | 0.231 µM | 15.7% |
| N=c1c2c(-c3ccccc3)c(-c3ccccc3)n(Cc3ccccc3)c2ncn1CCCn1ccnc1 | 1.06 µM | 56.8% |
| O=C1C(=O)c2ccccc2-c2ccccc21 | 3 µM | 44.1% |
| CN1Cc2cc(C(=O)c3cc(Cl)cc(CSc4ncccn4)c3O)cnc2NC1=O | > 10 µM (inactive) | 85.8% |
| Nc1nnnn1/N=C/C(Br)=C/c1ccccc1 | > 10 µM (inactive) | 106% |
| CC(C)Oc1ccccc1C1CC(=O)Nc2cc3c(cc21)OCO3 (centres undefined) | > 10 µM (inactive) | 80.6% |
| COc1cc(-c2nnc3n2N=C(c2ccccc2)CS3)cc(OC)c1OC | > 10 µM (inactive) | 99.8% |
| C/C=C/COC(=O)c1[nH]c2c(c1C)C(=O)CC(c1ccco1)C2 (centres undefined) | > 10 µM (inactive) | 73.9% |
| CCN(CC)c1ccc(-c2nn3c(-c4n[nH]c5c4CCC5)nnc3s2)cc1 | > 10 µM (inactive) | 57.7% |
| Cc1cccc(NC(=O)CSc2nc3ccc(NC(=O)CSc4nnnn4-c4ccccc4)cc3s2)c1C | > 10 µM (inactive) | 107% |
| O=S(=O)(c1ccc(Cl)c(Cl)c1)c1snnc1-c1ccccc1 | 7.93 µM | 99.6% |
| O=C(N/N=C/C(Br)=C/c1ccccc1)c1n[nH]c2c1CCC2 | 0.0993 µM | 28.6% |

| SMILES | IC50 [1] | cell count [2] |
| --- | --- | --- |
| Cc1cccc2cc(C#N)c(SCC(=O)N3CC(=O)Nc4ccccc43)nc12 | > 10 µM (inactive) | 110% |
| COc1ccc(NC(=O)/C(Cl)=C(/Cl)S(=O)(=O)Cc2ccc(C)cc2)cn1 | 3.25 µM | 22.9% |
| O=C(N/N=C/C=C/c1ccccc1)c1n[nH]c2c1CCC2 | > 10 µM (inactive) | 103% |
| CC(C)(C)C(=O)/C(=C\c1cccc([N+](=O)[O-])c1)n1cncn1 | 1.09 µM | 1.73% |
| Cc1ccc2[nH]c(-c3ccccc3)cc(=O)c2c1 | 4.49 µM | 63.3% |
| C/C(=N\O)c1ccc2c3ccccc3n(C)c2c1 | > 10 µM (inactive) | 89% |
| COc1ccc(C2=Nn3c(nnc3-c3ccc(OC)cc3)SC2)cc1 | > 10 µM (inactive) | 114% |
| O=C1CCCc2c1[nH]c1ccc(Cl)cc21 | 0.888 µM | 61.6% |
| O=C(Nc1ccccc1)c1nnsc1S(=O)c1ccc(Cl)cc1 (centres undefined) | > 10 µM (inactive) | 95.6% |
| O=c1c2ccccc2nc(/C=C/c2ccc([N+](=O)[O-])o2)n1CCCO | 1.54 µM | 83.1% |
| CCN(CC)c1ccc(-c2nn3c(-c4ccccc4OC)nnc3s2)cc1 | 2.97 µM | 31.6% |
| COc1cc(/C=N/Nc2snc(SC)c2C#N)ccc1O | > 10 µM (inactive) | 105% |
| CCc1ccc2oc(-c3cc(N)ccc3O)nc2c1 | > 10 µM (inactive) | 97.7% |
| CCCOc1ccc(C(=O)C(CN2CCOCC2)c2ccccc2)cc1 (centres undefined) | 5.2 µM | 79.7% |
| Cc1ccc(NC2=C/C(=N\S(=O)(=O)c3cccs3)c3ccccc3C2=O)c(C)c1 | > 10 µM (inactive) | 104% |
| CC1CC(=O)NN=C1c1ccc(NCCO)c([N+](=O)[O-])c1 (centres undefined) | 0.051 µM | 71.6% |
